Measurements published in US8067424B2, “Selective inhibitors for cyclin-dependent kinases” (Emory University, priority 2007, dated 2011).
Read-outs that look alike come from different tables or passages of the source.

Columns and labels:
CAMKKα = CAMKKα (Homo sapiens, UniProt Q8N5S9); test: Kinase screen: CAMKKa assay; format: biochemical; settings: read-out: Mean Remaining Enzyme Activity (%)
Experimental: Generally, the same procedure was used for all assays. Since the total assay volume was 25.5 microliters, 0.5 microliters of inhibitors at 51× assay concentration were added to the plates before any other addition.
The basic procedure was to add 0.5 microliters inhibitor/control in DMSO to plate. Fifteen microliters of enzyme/substrate/buffer mix were added and incubated for 5 min. Ten microliters MgATP at the relevant concentration were added and incubated for 30 min. The assay was stopped by adding 5 microliters of 3% orthophosphoric acid. The assay was transferred to a p81 filter plate and read in a scintillation counter of 30 sec/well. Note that this assay procedure was not followed for MKK1, which instead involved a two-step assay, and PKC alpha, which required the addition of lipid vesicles.
CAMKKa assay: 5-20 mU of CAMKKa (diluted in 50 mM Tris (pH 7.5), 0.1 mM EGTA, 1 mg/ml BSA, 0.1%, b-Mercaptoethanol) was assayed against substrate peptide ([…]) (SEQ ID NO: 31) in a final volume of 25.5 μl containing 50 mM Tris (pH 7.5), 0.1 mM EGTA, 0.5 mM CaCl2, 0.3 μM calmodulin, 0.1%, b-Mercaptoethanol, 300 μM substrate peptide, 10 mM magnesium acetate and 0.02 mM [33P-g-ATP] (500-1000 cpm/pmole) and incubated for 30 mins at room temperature. Assays were stopped by addition of 5 μl of 0.5M (3%) orthophosphoric acid. […]

SR = test: cells; settings: Homo sapiens
NCI-H460 = test: cells; settings: Homo sapiens
M14 = test: cells; settings: Homo sapiens
SK-MEL-5 = test: cells; settings: Homo sapiens
NCI/ADR-RES = settings: for Mean Optical Densities / Percent Growth: NCI/ADR-RES
UO-31 = test: cells; settings: Homo sapiens
MCF-7 tumors = test: MCF-7 tumor growth in nude mice, BS-194 subcutaneous; format: in vivo, Balb/c nude mice; settings: subcutaneous twice daily, 14 days
Experimental: In all, 32 female 8- to 10-week Balb/c nude mice (Harlan UK) were randomly divided into three groups. The mice received 0.72 mg 60-day release E2 pellets (Innovative Research of America, USA), subcutaneously implanted in one flank. MCF7 cells, were trypsinized and 5×10^6 cells in 0.1 ml of PBS were subcutaneously injected into the other flank of each mouse and tumor volumes were measured every 2-3 days, according to the formula (tumor width squared×tumor length)/2. Animal weight was also recorded throughout the course of the study. The animals were injected subcutaneously with BS-194, prepared in 10% DMSO, 50 mM HCl, 5% Tween 20, and 85% Saline, twice daily for 14 days, at which point the animals were sacrificed. The xenograft experiments were conducted after appropriate ethical approval and licensing was obtained in accordance with the UK ‘Guidance on the operation of animals (Scientific Procedure) Act 1986 (HMSO, London, UK, 1990).

OVCAR-4 = test: cells; settings: Homo sapiens
[1] = SW-620, log10 concentration −4.0
[2] = SW-620, log10 concentration −5.0
[3] = SW-620, log10 concentration −7.0
[4] = SW-620, log10 concentration −8.0
[5] = SF-268, log10 concentration −4.0
[6] = SF-268, log10 concentration −5.0
[7] = SF-268, log10 concentration −6.0
[8] = SF-268, log10 concentration −7.0
[9] = SF-268, log10 concentration −8.0
[10] = HCT-116, log10 concentration −4.0
[11] = HCT-116, log10 concentration −5.0
[12] = HCT-116, log10 concentration −6.0
[13] = HCT-116, log10 concentration −7.0
[14] = HCT-116, log10 concentration −8.0
[15] = NCI-H23, log10 concentration −4.0
[16] = NCI-H23, log10 concentration −5.0
[17] = NCI-H23, log10 concentration −6.0
[18] = NCI-H23, log10 concentration −7.0
[19] = NCI-H23, log10 concentration −8.0
[20] = SNB-19, log10 concentration −4.0
[21] = SNB-19, log10 concentration −5.0
[22] = SNB-19, log10 concentration −6.0
[23] = SNB-19, log10 concentration −7.0
[24] = SNB-19, log10 concentration −8.0

CC(C)c1cnn2c(NCc3ccccc3)cc(NCCCCCCCN)nc12 [BS-181]
remaining activity at 10 µM (CAMKKα): 57%

CC(C)c1cnn2c(NCc3ccccc3)cc(N[C@@H](CO)[C@H](O)CO)nc12 [ICEC0318, (3S)-3-(7-(Benzylamino)-3-isopropylpyrazolo[1,5-a]pyrimidin-5-ylamino)butane-1,2,4-triol]
GI50 (SR): 75.8 nM
CC50 (SR; read-out: LC50): > 100000 nM
TGI (SW-620; SW-620 (Colon Cancer)): 1.00E−6
Mean Optical Densities (SW-620; [1]): 0.101
Percent Growth (SW-620; [1]): −29%
Mean Optical Densities (SW-620; [2]): 0.125
Percent Growth (SW-620; [2]): −12%
Mean Optical Densities (SW-620; SW-620, log10 concentration −6.0): 0.412
Mean Optical Densities (SW-620; [3]): 0.782
Percent Growth (SW-620; [3]): 92%
Mean Optical Densities (SW-620; [4]): 0.839
Percent Growth (SW-620; [4]): 100%
GI50 (NCI-H460; NCI-H460): 258 nM
CC50 (NCI-H460; NCI-H460, read-out: LC50): > 100000 nM
TGI (SF-268; SF-268 (CNS Cancer)): 3.12E−5
Mean Optical Densities (SF-268; [5]): 0.404
Percent Growth (SF-268; [5]): −5%
Mean Optical Densities (SF-268; [6]): 0.460
Percent Growth (SF-268; [6]): 5%
Mean Optical Densities (SF-268; [7]): 0.452
Percent Growth (SF-268; [7]): 4%
Mean Optical Densities (SF-268; [8]): 1.234
Percent Growth (SF-268; [8]): 99%
Mean Optical Densities (SF-268; [9]): 1.291
Percent Growth (SF-268; [9]): 106%
TGI (HCT-116; HCT-116 (Colon Cancer)): >1.00E−4
Mean Optical Densities (HCT-116; [10]): 0.170
Percent Growth (HCT-116; [10]): 1%
Mean Optical Densities (HCT-116; [11]): 0.179
Percent Growth (HCT-116; [11]): 2%
Mean Optical Densities (HCT-116; [12]): 0.182
Percent Growth (HCT-116; [12]): 2%
Mean Optical Densities (HCT-116; [13]): 0.749
Percent Growth (HCT-116; [13]): 62%
Mean Optical Densities (HCT-116; [14]): 1.058
Percent Growth (HCT-116; [14]): 95%
GI50 (M14; M14): 305 nM
CC50 (M14; M14, read-out: LC50): 45200 nM
GI50 (SK-MEL-5; SK-MEL-5): 192 nM
CC50 (SK-MEL-5; SK-MEL-5, read-out: LC50): 5980 nM
TGI (NCI/ADR-RES; NCI/ADR-RES (Breast Cancer)): >1.00E−4
Mean Optical Densities (NCI/ADR-RES; log10 concentration −4.0): 0.531
Percent Growth (NCI/ADR-RES; log10 concentration −4.0): 10%
Mean Optical Densities (NCI/ADR-RES; log10 concentration −5.0): 0.657
Percent Growth (NCI/ADR-RES; log10 concentration −5.0): 22%
Mean Optical Densities (NCI/ADR-RES; log10 concentration −6.0): 1.107
Percent Growth (NCI/ADR-RES; log10 concentration −6.0): 63%
Mean Optical Densities (NCI/ADR-RES; log10 concentration −7.0): 1.638
Percent Growth (NCI/ADR-RES; log10 concentration −7.0): 111%
Mean Optical Densities (NCI/ADR-RES; log10 concentration −8.0): 1.587
Percent Growth (NCI/ADR-RES; log10 concentration −8.0): 107%
GI50 (UO-31; UO-31): 289 nM
CC50 (UO-31; UO-31, read-out: LC50): > 100000 nM
Change in animal weight (MCF-7 tumors): nearly constant
TGI (NCI-H23; NCI-H23 (Non-Small Cell Lung Cancer)): >1.00E−4
Mean Optical Densities (NCI-H23; [15]): 0.562
Percent Growth (NCI-H23; [15]): 1%
Mean Optical Densities (NCI-H23; [16]): 0.563
Percent Growth (NCI-H23; [16]): 1%
Mean Optical Densities (NCI-H23; [17]): 0.633
Percent Growth (NCI-H23; [17]): 6%
Mean Optical Densities (NCI-H23; [18]): 1.639
Percent Growth (NCI-H23; [18]): 81%
Mean Optical Densities (NCI-H23; [19]): 1.802
Percent Growth (NCI-H23; [19]): 93%
GI50 (OVCAR-4; OVCAR-4): 343 nM
CC50 (OVCAR-4; OVCAR-4, read-out: LC50): > 100000 nM
TGI (SNB-19; SNB-19 (CNS Cancer)): 4.89E−5
Mean Optical Densities (SNB-19; [20]): 0.492
Percent Growth (SNB-19; [20]): −2%
Mean Optical Densities (SNB-19; [21]): 0.537
Percent Growth (SNB-19; [21]): 4%
Mean Optical Densities (SNB-19; [22]): 0.580
Percent Growth (SNB-19; [22]): 9%
Mean Optical Densities (SNB-19; [23]): 1.247
Percent Growth (SNB-19; [23]): 84%
Mean Optical Densities (SNB-19; [24]): 1.309
Percent Growth (SNB-19; [24]): 91%
